Reference: ChEMBL document CHEMBL3045943, “Novel N-aryl(alkaryl)-2-[(3-R-2-oxo-2H-[1,2,4]triazino[2,3-c]quinazoline-6-yl)thio]acetamides: synthesis, cytotoxicity, anticancer activity, COMPARE analysis and docking” (2013)

Legend:
Assay type in all cases: functional
[1] = test system: LOX IMVI; experiment: Cytotoxicity against Homo sapiens (human) LOXIMVI cells after 48 hr by SRB assay
[2] = test system: OVCAR-3; experiment: Cytotoxicity against Homo sapiens (human) OVCAR3 cells after 48 hr by SRB assay; details: OVCAR-3, 48 h
[3] = test system: UACC-257; experiment: Cytotoxicity against Homo sapiens (human) UACC257 cells assessed as cell growth at 10 uM after 48 hr by SRB assay relative to control; details: UACC-257, 48 h, read-out: Activity
[4] = test system: MCF7; experiment: Cytotoxicity against Homo sapiens (human) MCF7 cells after 48 hr by SRB assay; details: MCF7, 48 h
[5] = test system: SK-MEL-28; experiment: Cytotoxicity against Homo sapiens (human) SK-MEL-28 cells assessed as cell growth at 10 uM after 48 hr by SRB assay relative to control; details: SK-MEL-28, 48 h, read-out: Activity
[6] = test system: HCT-15; experiment: Cytotoxicity against Homo sapiens (human) HCT15 cells assessed as cell growth at 10 uM after 48 hr by SRB assay relative to control; details: HCT-15, 48 h, read-out: Activity
[7] = test system: U-251; experiment: Cytotoxicity against Homo sapiens (human) U251 cells after 48 hr by SRB assay; details: U-251, 48 h
[8] = read-out: pLC50 (the source's name) (converted)

Compound	GI50 [1]	CC50 [1, 8]	TGI ([1]; read-out: pTGI)	GI50 [2]	CC50 [2, 8]	TGI ([2]; read-out: pTGI (converted))	growth at 10 µM [3]	GI50 [4]	CC50 [4, 8]	TGI ([4]; read-out: pTGI)	growth at 10 µM [5]	growth at 10 µM [6]	GI50 [7]	LC50 [7]	TGI ([7]; read-out: pTGI (converted))
COc1ccccc1CNC(=O)CSc1nc2ccccc2c2nc(=O)c(-c3ccccc3)nn12	2.09 µM	> 100 µM	> 100 µM												
COc1ccc(-c2nn3c(SCC(=O)Nc4ccccc4Cl)nc4ccccc4c3nc2=O)cc1				1.38 µM	> 100 µM	3.31 µM	-17.1%	2.34 µM	> 100 µM	> 100 µM	-5.98%	71.9%	1.78 µM	18.6 µM	4.68 µM
